The format of data set [1] is in vivo. The text has this: In certain preferred embodiments, the opioid agonist is hydrocodone or oxycodone.
For data set [2] the following is noted: cited from earlier work.
Another data set has as its system opioid receptors. Conditions: daily dosage of 50 mg; cited from earlier work.
The conditions of data set [3]: after oral doses; cited from earlier work.
The conditions of data set [4]: following oral administration; cited from earlier work.
Where [5] appears, read: in comparison to a 15 mg dose of hydrocodone.

The text below walks through data of US8518443B2, “Opioid agonist formulations with releasable and sequestered antagonist” (Purdue Pharma, L.P., priority 2001, dated 2013).

Structures can show the parent of a compound that is named as a salt. Where two headings read alike, the source gives them in different places.

For `COc1ccc2c3c1OC1C(=O)CC[C@H]4[C@@H](C2)N(C)CC[C@]314` (stereo partly drawn) [Hydrocodone, 4,5-epoxy-3-methoxy-17-methylmorphinan-6-one], the “Equianalgesic dose, Calculated Dose” value in data set [1] (setting [5]) is given as 15.0 mg.

As for `COc1ccc2c3c1O[C@H]1C(=O)CC[C@@]4(O)[C@@H](C2)N(C)CC[C@]314` [Oxycodone, 4,5-expoxy-14-hydroxy-3-methoxy-17-methylmorphinan-6-one], in data set [1] (setting [5]), the “Equianalgesic dose, Calculated Dose” value is given as 13.5 mg.

Take `O=C1CC[C@@]2(O)[C@H]3Cc4ccc(O)c5c4[C@@]2(CCN3CC2CC2)[C@H]1O5` [hydrochloride salt of naltrexone]: in data set [2], the solubility in water result is “about 100 mg/cc”.

For `CN1CC[C@]23CCCC[C@H]2[C@H]1Cc1ccc(O)cc13` [Levorphanol], the “Equianalgesic dose, Calculated Dose” value in data set [1] (setting [5]) is given as 1.8 mg.

In the case of `COc1ccc2c3c1O[C@H]1[C@@H](O)C=C[C@H]4[C@@H](C2)N(C)CC[C@@]341` [Codeine], the “Equianalgesic dose, Calculated Dose” value in data set [1] (setting [5]) is on record as 90.0 mg.

With Meperidine, the “Equianalgesic dose, Calculated Dose” value in data set [1] (setting [5]) is on record as 135.0 mg.

Turning to `O=C1CC[C@@]2(O)[C@H]3Cc4ccc(O)c5c4[C@@]2(CCN3CC2CC2)[C@H]1O5` [naltrexone], the “blockade of the actions of parenterally administered opioids” value with opioid receptors is listed as “adequate clinical blockade”. In addition, in data set [3], the duration of action was around 24 h. For the same compound, in data set [4], the oral bioavailability is 5-40%.

Regarding `CCC(=O)C(CC(C)N(C)C)(c1ccccc1)c1ccccc1` (stereo not drawn) [Methadone], the “Equianalgesic dose, Calculated Dose” value in data set [1] (setting [5]) was 9.0 mg.

With `CN1CC[C@]23c4c5ccc(O)c4O[C@H]2[C@@H](O)C=C[C@H]3[C@H]1C5` [Morphine], in data set [1] (in vivo), the “Equianalgesic dose, Calculated Dose” value is on record as 27.0 mg.

Take `C[C@H]1[C@H]2Cc3ccc(O)cc3[C@]1(C)CCN2CC1CC1` [cyclazocine]: in data set [3], the duration of action is around 24 h.
